From PubChem BioAssay (NCI)
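Grown in 96-well plates, cells were treated for 48 hours with each compound at five concentrations. Insufficient inhibition: endpoint recorded as highest concentration tested. GI50: concentration for 50% inhibition of growth. TGI: concentration producing complete growth inhibition.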 Where a SMILES comes first, the peptide text is derived from it. [ ]: non-standard residue; d: D form.

What was measured:
Assay in all cases: NCI-60 cell line screen, 48 h
786-0 renal = tested on: 786-0 renal
A549 NSCLC = tested on: A549 NSCLC
HOP-92 NSCLC = tested on: HOP-92 NSCLC
K-562 leukemia = tested on: K-562 leukemia
NCI-H226 lung = tested on: NCI-H226 lung
NCI/ADR-RES ovarian = tested on: NCI/ADR-RES ovarian
SF-268 CNS = tested on: SF-268 CNS
SK-OV-3 ovarian = tested on: SK-OV-3 ovarian
TK-10 renal = tested on: TK-10 renal
UACC-257 melanoma = tested on: UACC-257 melanoma

COc1cc2c(=O)n(CC3CCCCC3)c3c4cc[nH]c4ncc3c2cc1OC
GI50 (786-0 renal): 1.31 µM
TGI (786-0 renal): 9.25 µM
GI50 (A549 NSCLC): 5 µM
TGI (A549 NSCLC): 16.9 µM
GI50 (HOP-92 NSCLC): 0.137 µM
TGI (HOP-92 NSCLC): 2.78 µM
GI50 (K-562 leukemia): 0.187 µM
TGI (K-562 leukemia): 15.8 µM
GI50 (NCI-H226 lung): 0.0556 µM
TGI (NCI-H226 lung): 17.2 µM
GI50 (NCI/ADR-RES ovarian): 3.74 µM
TGI (NCI/ADR-RES ovarian): 34.5 µM
GI50 (SF-268 CNS): 1.4 µM
TGI (SF-268 CNS): 13.9 µM
GI50 (SK-OV-3 ovarian): 4.36 µM
TGI (SK-OV-3 ovarian): 24.2 µM
GI50 (TK-10 renal): 4.66 µM
TGI (TK-10 renal): 18.9 µM
GI50 (UACC-257 melanoma): 23.8 µM
TGI (UACC-257 melanoma): > 50 µM

N#Cc1cc2c(cc1Cl)SC(=Nc1ccccc1)N(S(=O)(=O)c1ccc(Br)s1)S2(=O)=O
GI50 (786-0 renal): 16.7 µM
TGI (786-0 renal): 32.4 µM
GI50 (A549 NSCLC): 24.7 µM
TGI (A549 NSCLC): 66.6 µM
GI50 (HOP-92 NSCLC): 17.6 µM
TGI (HOP-92 NSCLC): 39.7 µM
GI50 (K-562 leukemia): 14.5 µM
TGI (K-562 leukemia): 43.8 µM
GI50 (NCI-H226 lung): 28.8 µM
TGI (NCI-H226 lung): 55.8 µM
GI50 (NCI/ADR-RES ovarian): 19.8 µM
TGI (NCI/ADR-RES ovarian): 43.8 µM
GI50 (SF-268 CNS): 20.6 µM
TGI (SF-268 CNS): 47.2 µM
GI50 (SK-OV-3 ovarian): 39.6 µM
TGI (SK-OV-3 ovarian): > 100 µM
GI50 (TK-10 renal): 19.7 µM
TGI (TK-10 renal): 35.6 µM

CCCCCCCCc1cc(O)ccc1O
GI50 (786-0 renal): 17.5 µM
TGI (786-0 renal): 34.5 µM
GI50 (A549 NSCLC): 28.6 µM
TGI (A549 NSCLC): > 100 µM
GI50 (HOP-92 NSCLC): 4.65 µM
TGI (HOP-92 NSCLC): 21.1 µM
GI50 (K-562 leukemia): 14.9 µM
TGI (K-562 leukemia): 67.5 µM
GI50 (NCI-H226 lung): 17.3 µM
TGI (NCI-H226 lung): 41.7 µM
GI50 (NCI/ADR-RES ovarian): 19.3 µM
TGI (NCI/ADR-RES ovarian): 56.2 µM
GI50 (SF-268 CNS): 14.1 µM
TGI (SF-268 CNS): 31.3 µM
GI50 (SK-OV-3 ovarian): 34.8 µM
TGI (SK-OV-3 ovarian): > 100 µM
GI50 (TK-10 renal): 1.46 µM
TGI (TK-10 renal): 22.7 µM
GI50 (UACC-257 melanoma): 18.6 µM
TGI (UACC-257 melanoma): 56.7 µM

Cc1c2ccccc2c(C)n2c1nc1cc(Cl)c(Cl)cc12
GI50 (786-0 renal): > 100 µM
TGI (786-0 renal): > 100 µM
GI50 (A549 NSCLC): > 100 µM
TGI (A549 NSCLC): > 100 µM
GI50 (HOP-92 NSCLC): > 100 µM
TGI (HOP-92 NSCLC): > 100 µM
GI50 (K-562 leukemia): 14.3 µM
TGI (K-562 leukemia): 72.1 µM
GI50 (NCI-H226 lung): > 100 µM
TGI (NCI-H226 lung): > 100 µM
GI50 (NCI/ADR-RES ovarian): > 100 µM
GI50 (SF-268 CNS): > 100 µM
TGI (SF-268 CNS): > 100 µM
GI50 (SK-OV-3 ovarian): > 100 µM
TGI (SK-OV-3 ovarian): > 100 µM
GI50 (TK-10 renal): > 100 µM
TGI (TK-10 renal): > 100 µM
GI50 (UACC-257 melanoma): > 100 µM
TGI (UACC-257 melanoma): > 100 µM

CSCC[C@H](NC(=O)[C@@H](N)CC(N)=O)C(=O)N[C@@H](Cc1c[nH]c2ccccc12)C(=O)N[C@@H](CCC(N)=O)C(=O)N[C@@H](CCC(=O)O)C(=O)N[C@H](C(=O)NCC(=O)N[C@@H](CCCCN)C(=O)N[C@H](C)C(=O)O)C(C)C (H-NMWQEVGK[dA]-OH)
TGI (786-0 renal): > 100 µM
TGI (A549 NSCLC): > 100 µM
TGI (HOP-92 NSCLC): > 100 µM
TGI (K-562 leukemia): > 100 µM
TGI (NCI-H226 lung): > 100 µM
TGI (NCI/ADR-RES ovarian): > 100 µM
TGI (SF-268 CNS): > 100 µM
TGI (SK-OV-3 ovarian): > 100 µM
TGI (TK-10 renal): > 100 µM
TGI (UACC-257 melanoma): > 100 µM

Cc1cn2cc(-c3ccc4c(c3)CC(=O)N4)nc2s1
GI50 (786-0 renal): > 100 µM
TGI (786-0 renal): > 100 µM
GI50 (A549 NSCLC): > 100 µM
TGI (A549 NSCLC): > 100 µM
GI50 (HOP-92 NSCLC): > 100 µM
TGI (HOP-92 NSCLC): > 100 µM
GI50 (K-562 leukemia): 61.9 µM
TGI (K-562 leukemia): > 100 µM
GI50 (NCI-H226 lung): > 100 µM
TGI (NCI-H226 lung): > 100 µM
GI50 (NCI/ADR-RES ovarian): > 100 µM
TGI (NCI/ADR-RES ovarian): > 100 µM
GI50 (SK-OV-3 ovarian): > 100 µM
TGI (SK-OV-3 ovarian): > 100 µM
GI50 (TK-10 renal): > 100 µM
TGI (TK-10 renal): > 100 µM
GI50 (UACC-257 melanoma): > 100 µM
TGI (UACC-257 melanoma): > 100 µM

C[C@H]1CC[C@@H]2[C@@H](C)[C@H]3[C@H](C[C@H]4[C@@H]5CC=C6C[C@@H](O)CC[C@]6(C)[C@H]5CC[C@]34C)N2C1
TGI (786-0 renal): > 100 µM
TGI (A549 NSCLC): > 100 µM
TGI (HOP-92 NSCLC): 58.3 µM
TGI (NCI-H226 lung): > 100 µM
TGI (NCI/ADR-RES ovarian): > 100 µM
TGI (SF-268 CNS): > 100 µM
TGI (SK-OV-3 ovarian): > 100 µM
TGI (TK-10 renal): > 100 µM
TGI (UACC-257 melanoma): > 100 µM
